SMILES strings stand for the structures.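 All cell lines were grown in 96-well plates and treated with compound for 48 hours. GI50 marks 50% less growth. Definition used: TGI = concentration required for complete inhibition of growth.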

What all share (experiment): inhibition of tumour cell growth, NCI panel, 48 h
In test [1] the test system is HT29 colon.
Test [2] has as its system SNB-19 CNS.
For test [3], the system named is A498 renal.
Test [4] has as its system OVCAR-4 ovarian.
The test system of test [5] is MDA-N.
Test [6] concerns HS 578T breast.
The subject of test [7] is NCI-H226 lung.
Test [8] concerns SN12C renal.
Test [9] concerns T-47D breast.
Test [10] relates to HCC-2998 colon.
Test [11] deals with NCI-H23 lung.
The subject of test [12] is SNB-75 CNS.

Regarding `C=CC[C@H]1[C@H](O[Si](C)(C)C(C)(C)C)C=CC(=O)[C@@H]1CC(=O)N(Cc1ccccc1)Cc1ccccc1`, the TGI in test [1] is 29.2 µM; in test [2], more than 100 µM; in [3] it was more than 100 µM; in test [4], more than 100 µM; in test [5], more than 100 µM; in [6], more than 100 µM. For the same compound, the TGI turned out to be 46.7 µM in test [7]; 90.4 µM in [8]; 44.2 µM in [9]; 73.6 µM in [10]; 30.5 µM in [11].
Take `S=C1N=C(Cl)C2(NN1)c1ccccc1-c1ccccc12`: the TGI in test [3], in [4], in test [5], in test [6], in test [7] and in test [8] was more than 10 µM each time. Moreover, the TGI in [9], in test [10], in test [12] and in [11] was more than 10 µM in each case.
In the case of `CC(=O)Nc1ccc2[nH]c(-c3cccc(F)c3)cc(=O)c2c1`, the TGI is more than 100 µM in [1]; more than 100 µM in test [2]; more than 59.8 µM in test [3]; more than 29.5 µM in test [4]; more than 25.4 µM in test [5]; more than 28.2 µM in test [6]. In addition, the TGI is more than 75.9 µM in [7]; more than 100 µM in [8]; more than 100 µM in test [9]; 23 µM in test [10]; more than 56.8 µM in test [11].
As to `COCc1cc2c(cc1/C=C/[N+](=O)[O-])OCO2`, the TGI in test [1] stood at 34.6 µM; in test [3], 30.8 µM; in test [5], 32.6 µM; in [6], 44.3 µM; in test [7] it was 42.9 µM; in test [8] it was 34 µM. The TGI came to 41.8 µM in test [9], 32 µM in [10], 31.9 µM in test [12] and 44 µM in test [11].
`COC(=O)/C=c1/c2ccccc2n2nc3ccccc3c12`: the TGI in test [1] was more than 100 µM; in test [2], more than 100 µM; in test [3] it was 93.3 µM; in test [4], more than 100 µM; in test [5], more than 100 µM; in test [6], more than 100 µM. Moreover, the TGI in [8], in test [9], in [10] and in test [11] was more than 100 µM in each case.
On to `C=CC[C@H](C)CCC(=O)N1[C@H]2CC3CC[C@@]2(CS1(=O)=O)C3(C)C`, for which the TGI in [1] is 49 µM; in [2], more than 100 µM; in test [3], more than 100 µM; in test [4] it was more than 100 µM; in [5], more than 100 µM; in test [6], more than 100 µM. Besides, the TGI in test [7], in test [8], in test [9], in test [10] and in test [11] was more than 100 µM each time.
With `O=S1C2=C(Cc3ccccc3)C(Cc3ccccc3)=C1CCc1cccc(c1)CC2`, the TGI in test [1] was determined as 26 µM; in test [2], 28.1 µM; in test [4] it was 21.4 µM; in test [5], 30.6 µM; in test [6] it was 48.8 µM; in test [7], 47.8 µM. Further, the TGI worked out at 30.6 µM in [8]; 44.8 µM in test [9]; 27.5 µM in [10]; 27.8 µM in test [12]; 28.2 µM in test [11].
For the compound `COC(=O)c1cc(C#Cc2cc(OC)ccc2OC)ccc1OC`, the TGI in test [1], in test [2], in test [4], in test [5], in test [6] and in [7] was more than 100 µM throughout. In addition, the TGI is more than 100 µM in test [8]; 34.5 µM in test [9]; more than 100 µM in test [10]; more than 100 µM in test [12]; more than 100 µM in [11]. Also, in [8], the GI50 is 37.9 µM.
Regarding `CNC(=O)c1[nH]cnc1/N=N/N(C)N`, the TGI in [1], in test [3], in [4], in test [5], in [6] and in test [7] was more than 100 µM throughout. Moreover, the TGI in test [8], in test [9], in test [10], in test [12] and in test [11] was more than 100 µM throughout.
Turning to `Cc1nnc2n1-c1ccccc1C(=S)N1CSCC21` (configuration not stated), the TGI in test [1], in test [2], in [3], in [4], in [5] and in test [6] was more than 100 µM throughout. The TGI in test [7], in test [8], in test [9], in test [10] and in [12] was more than 100 µM each time.
Turning to `CC1(C)CC(=O)c2c(nc3ccc4ccccc4c3c2-c2ccc(NC(=O)CCC(=O)Nc3ccc(-c4c5c(nc6ccc7ccccc7c46)CC(C)(C)CC5=O)cc3)cc2)C1`, the TGI in test [1], in test [2], in test [5], in test [6], in [7] and in test [8] was more than 100 µM throughout. Also, the TGI in test [9] and in test [12] was more than 100 µM throughout.
Consider `C[C@H](O)C1CC(Cn2nnc3c(N)ncnc32)C1(C)C` (some centres not stated), for which the TGI in [2], in [3], in test [4], in test [5], in test [6] and in [7] was more than 100 µM each time. Moreover, the TGI in [8], in [9], in test [10] and in test [12] was more than 100 µM in each case.
Regarding `O=C(CC(C(=O)c1ccoc1)c1ccco1)c1ccco1` (configuration not stated), the TGI in [1], in test [3], in test [4], in [5], in [6] and in test [7] was more than 100 µM throughout. For the same compound, the TGI in test [8], in [9], in [10], in test [12] and in [11] was more than 100 µM in each case.

For the origin of these results see PubChem BioAssay (NCI).
